# Test system: greenhouse red spider mite (Tetranychus urticae)
# Test: Tetranychus urticae spray test, OP-resistant (TETRUR), bean leaf disks
# Type: in vivo
# Settings: Tetranychus urticae, foliar, 144 h, application rate 500 g/ha, after 6 days; read-out: efficacy (spider mites killed)
# Protocol: After 6 days, the effect in % is determined.
row,Structure (SMILES),pest or weed control at 500 g/ha
1,CN/C(=N\c1cc(SCC(F)(F)F)c(C)cc1C)c1cccc(Cl)c1 [Ia-265],90%
2,CN/C(=N\c1cc(SCC(F)(F)F)c(C)cc1F)c1ccc(Cl)cc1 [Ia-60],100%
3,CN(C)/C(=N/c1cc([S+]([O-])CC(F)(F)F)c(Cl)cc1Cl)C(F)(F)F (stereo not shown) [Ib-26],100%
4,Cc1cc(F)c(/N=C(\N)C2(C#N)CC2)cc1[S+]([O-])CC(F)(F)F (stereo not shown) [Ib-72],100%
5,Cc1cc(F)c(/N=C(\c2cccc(C(F)(F)F)c2)N(C)C)cc1SCC(F)(F)F [Ia-212],90%
6,FC(F)(F)CN/C(=N\c1cc(SCC(F)(F)F)c(Cl)cc1Cl)C1CC1 [Ia-153],100%
7,Cc1cc(F)c(/N=C(\N)c2ccncn2)cc1[S+]([O-])CC(F)(F)F (stereo not shown) [Ib-65],100%
8,Cc1cc(F)c(/N=C(/c2ccccc2)N(C)C)cc1SCC(F)(F)F [Ia-193],100%
9,CCN/C(=N\c1cc([S+]([O-])CC(F)(F)F)c(Cl)cc1Cl)c1cccnc1 (stereo not shown) [Ib-150],90%
10,Cc1cc(C)c([S+]([O-])CC(F)(F)F)cc1/N=C(\NCC(F)(F)F)C1CCCC1 (stereo not shown) [Ib-155],90%
11,"CN/C(=N\c1cc([S+]([O-])CC(F)(F)F)c(C)cc1F)c1cccnc1 (stereo not shown) [Ib-28, N′-{2-Fluoro-4-methyl-5-[(2,2,2-trifluoroethyl)sulfinyl]phenyl}-N-methylpyridine-3-carboximidamide]",100%
12,Cc1ccc(/N=C(/N)C(F)(F)F)cc1SCC(F)(F)F [Ia-213],100%
13,Cc1ccc(/C(=N/c2cc(SCC(F)(F)F)c(C)cc2F)N2CCOCC2)cc1 [Ia-221],100%
14,Cc1cc(F)c(/N=C(\c2cccs2)N(C)C)cc1[S+]([O-])CC(F)(F)F (stereo not shown) [Ib-81],100%
15,N/C(=N\c1cc([S+]([O-])CC(F)(F)F)c(Cl)cc1Cl)C(F)F (stereo not shown) [Ib-80],100%
16,CN/C(=N\c1cc([S+]([O-])CC(F)(F)F)c(Cl)cc1Cl)c1ccncc1 (stereo not shown) [Ib-152],90%
17,FC(F)(F)CN/C(=N\c1cc(SCC(F)(F)F)c(Cl)cc1Cl)C1CCCC1 [Ia-254],90%
18,Cc1cc(F)c(/N=C(/NCC2CC2)C(F)(F)F)cc1[S+]([O-])CC(F)(F)F (stereo not shown) [Ib-29],100%
19,COc1ccc(/C(N)=N\c2cc(SCC(F)(F)F)c(C)cc2F)cc1 [Ia-263],90%
20,Cc1cc(Cl)c([S+]([O-])CC(F)(F)F)cc1/N=C(\N)C1(Cl)CC1 (stereo not shown) [Ib-138],100%
21,Cc1cc(F)c(/N=c2\scc(C3(Cl)CC3)n2CC(F)(F)F)cc1SCC(F)(F)F [Ia-276],100%

row,Structure (SMILES),pest or weed control at 500 g/ha
1,CN/C(=N/c1cc(SCC(F)(F)F)c(C)cc1F)c1cccc(F)c1 [Ia-126],100%
2,O=C1CS/C(=N\c2cc([S+]([O-])CC(F)(F)F)ccc2Cl)N1CC(F)(F)F (stereo not shown) [Ib-121],100%
3,CN/C(=N\c1cc([S+]([O-])CC(F)(F)F)c(Cl)cc1Cl)c1ccc(Cl)cc1 (stereo not shown) [Ib-149],90%
4,Cc1cc(C)c([S+]([O-])CC(F)(F)F)cc1/N=C(/c1ccccc1Cl)N(C)C (stereo not shown) [Ib-147],90%
5,N#CC1(/C(N)=N/c2cc(SCC(F)(F)F)c(Cl)cc2Cl)CC1 [Ia-219],90%
6,Cc1cc(F)c(/N=C(\N)c2cccnc2)cc1[S+]([O-])CC(F)(F)F (stereo not shown) [Ib-63],100%
7,CN(C)/C(=N/c1cc(SCC(F)(F)F)c(F)cc1Cl)C(F)(F)F [Ia-109],80%
8,COc1cc(C)c(SCC(F)(F)F)cc1/N=C(\N)c1ccncn1 [Ia-260],90%
9,Cc1cc(F)c(/N=C(/NC2(C)CC2)C(F)(F)F)cc1[S+]([O-])CC(F)(F)F (stereo not shown) [Ib-36],100%
10,CCN(C)/C(=N\c1cc(SCC(F)(F)F)c(C)cc1C)c1ccc(Cl)nc1 [Ia-227],100%
11,Cc1cc(C)c([S+]([O-])CC(F)(F)F)cc1/N=C(\N)c1ccc(Cl)nc1 (stereo not shown) [Ib-94],100%
12,Cc1cc(F)c(/N=C(/c2cccnc2)N(C)C)cc1SCC(F)(F)F [Ia-59],90%
13,Cc1cc(Cl)c(SCC(F)(F)F)cc1/N=C(\N(C)C)C(F)(F)F [Ia-53],100%
14,Cc1cc(F)c(/N=C(\N)C2CCC2)cc1SCC(F)(F)F [Ia-94],100%
15,CCN/C(=N\c1cc(SCC(F)(F)F)c(C)cc1F)c1cccnc1 [Ia-151],100%
16,N/C(=N\c1cc(SCC(F)(F)F)c(Cl)cc1Cl)c1ccncc1 [Ia-172],90%
17,Cc1cc(C)c(SCC(F)(F)F)cc1/N=C(\N)C(F)(F)C(F)(F)Cl [Ia-65],100%
18,CN/C(CC(F)(F)F)=N\c1cc(SCC(F)(F)F)c(C)cc1F [Ia-233],100%
19,CN/C(=N/c1cc(SCC(F)(F)F)c(C)cc1F)C(F)(F)F [Ia-226],100%
20,Cc1cc(F)c(/N=c2\sc(C)c(C)n2CC(F)(F)F)cc1SCC(F)(F)F [Ia-138],100%
21,Cc1cc(F)c(/N=C(\c2ccc(C(F)(F)F)cc2)N(C)C)cc1SCC(F)(F)F [Ia-242],100%

row,Structure (SMILES),pest or weed control at 500 g/ha
1,C=CCN/C(=N\c1cc(SCC(F)(F)F)c(C)cc1F)c1ccc(Cl)nc1 [Ia-150],100%
2,Cc1cc(F)c(/N=C(\c2ccccc2F)N(C)C)cc1SCC(F)(F)F [Ia-147],100%
3,Cc1cc(C)c(SCC(F)(F)F)cc1/N=C(\NCC(F)F)C1CCCC1 [Ia-257],90%
4,Cc1cc(F)c(/N=C(\N)C2CCCCC2)cc1SCC(F)(F)F [Ia-169],90%
5,CN/C(=N\c1cc([S+]([O-])CC(F)(F)F)c(Cl)cc1Cl)c1ccccn1 (stereo not shown) [Ib-109],100%
6,CN(C)/C(=N/c1cc([S+]([O-])CC(F)(F)F)c(Cl)cc1F)C(F)(F)F (stereo not shown) [Ib-32],100%
7,[O-][S+](CC(F)(F)F)c1cc(/N=C(\NCC(F)(F)F)C2CCC2)c(Cl)cc1Cl (stereo not shown) [Ib-167],90%
8,COC/C(N)=N/c1cc(SCC(F)(F)F)c(Cl)cc1Cl [Ia-258],90%
9,CN/C(=N/c1cc(SCC(F)(F)F)c(C)cc1F)c1cccc(C(F)(F)F)c1 [Ia-203],100%
10,Cc1cc(C)c(SCC(F)(F)F)cc1/N=C(\N)C(F)(F)Cl [Ia-122],100%
11,Cc1cc(F)c(/N=C(\NC2CC2)c2ccc(Cl)nc2)cc1[S+]([O-])CC(F)(F)F (stereo not shown) [Ib-88],100%
12,Cc1cc(F)c(/N=c2\sc(C)c(C)n2CC(F)(F)F)cc1[S+]([O-])CC(F)(F)F (stereo not shown) [Ib-158],90%
13,Cc1cc(F)c(/N=C(/c2ccc(Cl)cc2)N(C)C)cc1[S+]([O-])CC(F)(F)F (stereo not shown) [Ib-73],90%
14,CN/C(=N/c1cc(SCC(F)(F)F)c(Br)cc1Br)C(F)(F)F [Ia-37],100%
15,CN/C(=N\c1cc(SCC(F)(F)F)c(Cl)cc1Cl)c1ccc(Cl)nc1 [Ia-152],100%
16,Cc1cc(Cl)c(/N=C(\N)C(F)(F)F)cc1SCC(F)(F)F [Ia-56],100%
17,Cc1cc(F)c(/N=C(\N)c2cccnc2)cc1SCC(F)(F)F [Ia-40],100%
18,N/C(=N\c1cc(SCC(F)(F)F)c(Cl)cc1Cl)c1cnccn1 [Ia-208],100%
19,CN/C(=N\c1cc([S+]([O-])CC(F)(F)F)c(Cl)cc1Cl)c1cccnc1 (stereo not shown) [Ib-95],100%
20,Cc1cc(C)c([S+]([O-])CC(F)(F)F)cc1/N=C(/c1ccc(Cl)cc1)N(C)C (stereo not shown) [Ib-154],90%
21,Cc1cc(F)c(/N=C/N(C)C)cc1[S+]([O-])CC(F)(F)F (stereo not shown) [Ib-128],90%

row,Structure (SMILES),pest or weed control at 500 g/ha
1,Cc1cc(C)c([S+]([O-])CC(F)(F)F)cc1/N=C(/c1cccnc1)N(C)C (stereo not shown) [Ib-98],100%
2,N/C(=N\c1cccc(SCC(F)(F)F)c1)c1ccc(Cl)nc1 [Ia-107],90%
3,Cc1cc(F)c(/N=C(\NC2CC2)C2CC2)cc1SCC(F)(F)F [Ia-108],80%
4,Cc1cc(Cl)c(/N=C2\SCC(=O)N2CC(F)(F)F)cc1SCC(F)(F)F [Ia-275],100%
5,Cc1cc(F)c(/N=C2\CCCCN2C)cc1[S+]([O-])CC(F)(F)F (stereo not shown) [Ib-52],100%
6,CN/C(=N\c1cc(SCC(F)(F)F)c(C)cc1C)c1ccc(Cl)cc1 [Ia-176],90%
7,Cc1cc(F)c(/N=C(/NC2(C)CC2)C(F)(F)F)cc1SCC(F)(F)F [Ia-85],100%
8,Cc1cc(Cl)c(/N=C(\N)C(F)F)cc1SCC(F)(F)F [Ia-48],100%
9,[O-][S+](CC(F)(F)F)c1cc(/N=C(\NCCc2ncc(C(F)(F)F)cc2Cl)C2CC2)c(Cl)cc1Cl (stereo not shown) [Ib-130],100%
10,CCN/C(=N\c1cc([S+]([O-])CC(F)(F)F)c(C)cc1F)C1CC1 (stereo not shown) [Ib-46],100%
11,Cc1cc(F)c(/N=C2\SCC(=O)N2CC(F)F)cc1[S+]([O-])CC(F)(F)F (stereo not shown) [Ib-116],90%
12,Cc1cc(F)c(/N=C(\N)C(C)C)cc1SCC(F)(F)F [Ia-225],100%
13,Cc1cc(F)c(/N=C(\N)c2ccccn2)cc1SCC(F)(F)F [Ia-63],90%
14,Cc1cc(F)c(/N=C(\c2ccccc2F)N(C)C)cc1[S+]([O-])CC(F)(F)F (stereo not shown) [Ib-87],100%
15,CN/C(=N\c1cc(SCC(F)(F)F)c(C)cc1C)c1ccccn1 [Ia-214],100%
16,CN(C)/C(=N\c1cc([S+]([O-])CC(F)(F)F)c(Cl)cc1Cl)c1ccccc1 (stereo not shown) [Ib-127],100%
17,Cc1cc(F)c(/N=C(/N)c2ccc(Cl)cc2)cc1[S+]([O-])CC(F)(F)F (stereo not shown) [Ib-118],100%
18,O=C1CS/C(=N\c2cc(SCC(F)(F)F)c(Cl)cc2F)N1CC(F)(F)F [Ia-192],90%
19,CN/C(=N/c1cc(SCC(F)(F)F)c(Cl)cc1F)C(F)(F)F [Ia-52],100%

# Reference: patent publication US10051861B2, “N-arylamidine-substituted trifluoroethyl sulfide derivatives as acaricides and insecticides” (BAYER CROPSCIENCE AG, priority 2011, dated 2018)
